# Data as given in patent US20230203445A1, “HYPOIMMUNOGENIC CELLS” (HEALIOS K.K., priority 2020, published 2023).
# Tested on: iCaspase9-introduced cells
# Experiment: Suicide gene function: cell death induction by rapamycin (CellTiter Glo)
# Format: cell-based, human
# Details: 24 hr
# Procedure: Next, an experiment was conducted to confirm whether the introduced suicide gene is functionable. In order to confirm the function of the suicide gene iCaspase9 introduced into universal donor iPS cells as a safety mechanism, the cell death induction by the addition of rapamycin in vitro was confirmed. In order to evaluate the cell death induction efficiency, CellTiter Glo Assay Kit (Promega) was used to luminescence measure the cell viability based on the amount of ATP, which is an index of cell viability. The above-mentioned iCaspase9-introduced cells (clone B), and iCaspase9-free unedited cells (Parental) were cultured for 24 hr under the condition of each rapamycin concentration (0 nM, 0.003 nM, 0.01 nM, 0.03 nM, 0.1 nM, 0.3 nM, 1 nM) and the viable cell rate was measured.
smiles,measurement,value
CO[C@H]1C[C@@H]2CC[C@@H](C)[C@@](O)(O2)C(=O)C(=O)N2CCCC[C@H]2C(=O)O[C@H]([C@H](C)C[C@@H]2CC[C@@H](O)[C@H](OC)C2)CC(=O)[C@H](C)/C=C(\C)[C@@H](O)[C@@H](OC)C(=O)[C@H](C)C[C@H](C)/C=C/C=C/C=C/1C [rapamycin],rapamycin concentration at which cell death was induced by iCaspase9,≥ 0.1 nM
